Here are results for eight compounds from patent publication US4160097A, “1-(2-Phenylureylene)imidazoles” (Westwind Pharmaceuticals, Inc., priority 1977, dated 1979).

≈ marks a conversion by molar mass, not a printed value.

Test [1] has as its system Trichophyton mentagrophytes. Briefly: Antifungal activity, agar dilution method. It counts as cell-based, Trichophyton mentagrophytes (ATCC No. 8757 and 9129). Particulars: T. mentagrophytes, read-out: Parts Per Million Inhibitions of T. mentagrophytes. The procedure: (§1) various compounds of this invention display antifungal and anti-yeast activity.
(§2) In Table IX below are listed the antifungal activity of a number of compounds encompassed in the present invention. These were determined by the agar dilution method as described in Chapters 2 and 3 of Methods in Microbiology, Vol. 7B, edited by J. R. Norris and D. W. Ribbons, Academic Press, New York, 1972.
(In agar dilution, organisms are placed on agar that contains the substance at set levels.)

The subject of test [2] is carrageenan rat paw edema. Briefly: Rat Paw Edema Assay, Oral Dosing. The conditions noted are these: 4 h, 100 mg/kg oral, four hours after drug, read-out: % Difference from Control. The class given is in vivo. In short, it runs like this:
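Rats with carrageenan-induced paw edema; swelling measured 4 h after dosing, reported as % difference versus control. Oral arm: compound given orally. Local arm: compound injected together with carrageenan at time zero.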

Test [3] relates to cell-mediated immune response to the antigen, Mycobacterium tuberculosis H37Ra. As to the kind of experiment: delayed hypersensitivity test. The class given is in vivo, mouse. Particulars: Mus musculus, sc; mice; dose reducing edema of cell-mediated immune response by 60% vs control; read-out: D.H.S. (ED60). In short, it runs like this:
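Mice sensitized s.c. at the tail base with M. tuberculosis H37Ra. Compounds given s.c.; ED60 is the mg/kg dose reducing the edema by 60% vs control.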

In the next test the test system is Candida albicans. As to the kind of experiment: Antifungal activity, agar dilution method. It counts as cell-based, Candida albicans (ATCC No. 10231). The conditions noted are these: C. albicans, read-out: Parts Per Million Inhibitions of C. albicans. The procedure:
as §1, §2

The next test has as its system Candida tropicalis. Briefly: Antifungal activity, agar dilution method. It counts as cell-based. The conditions noted are these: C. tropicalis, read-out: Parts Per Million Inhibitions of C. tropicalis. As for the experimental part:
as §1, §2

In the next test the test system is Trichophyton ajelloi. Briefly: Antifungal activity, agar dilution method. It counts as cell-based. Particulars: Arthroderma uncinatum, T. ajelloi, read-out: Parts Per Million Inhibitions of T. ajelloi. The procedure: as §1, §2
The subject of test [4] is humeral or antibody response. As to the kind of experiment: hemolysin test in mice. It counts as in vivo. Particulars: Mus musculus, sc, dose reducing antibody activity by 50% vs control, read-out: HL(ED50).
Another test concerns Trichophyton rubrum. As to the kind of experiment: Antifungal activity, agar dilution method. Particulars: T. rubrum, read-out: Parts Per Million Inhibitions of T. rubrum. It counts as cell-based, Trichophyton rubrum (ATCC No. 10218 and 14001). The procedure: as §1, §2
Test [5] relates to carrageenan rat paw edema. Briefly: Rat Paw Edema Assay, Local Administration. Particulars: read-out: % Difference from Control. The class given is in vivo. The procedure: The anti-inflammatory activity of representative compounds of this invention was determined by the rat paw edema assay both by local administration (Table XI below) and by oral dosing (Table XII below). For the oral dosing, the procedure of C. A. Winter, E. A. Risley and G. W. Nuss, Proc. Soc. Exp. Biol. Med. III, 544 (1962) was employed with measurement taken four hours after the drug was administered. The local administration tests were carried out similarly except the irritant (carrageenan) and the test compound were injected simultaneously at time zero.
Tables XI and XII report the anti-inflammatory activity of the compounds tested as % difference in the edema or swelling as compared with the control. These Tables also give the response in many instances of more than one dose level of the same drug.

For the next test, the system named is Aspergillus niger. As to the kind of experiment: Antifungal activity, agar dilution method. The class given is cell-based, Aspergillus niger (ATCC No. 16404). Particulars: A. niger, read-out: Parts Per Million Inhibitions of A. niger. The procedure:
as §1, §2

For a further test, the system named is immune response. As to the kind of experiment: immunosuppressant activity (general statement). It counts as in vivo, mice. The conditions noted are these: statement in words.

For `Cc1cccc(-c2nc3ccccc3n3ccnc23)c1` [Compound 133], the MIC in test [1] stood at 8 µg/mL (≈ 30.9 µM); in the test on Candida albicans it was 100 µg/mL (≈ 386 µM); with Candida tropicalis, 100 µg/mL (≈ 386 µM); in the test with Trichophyton ajelloi, 8 µg/mL (≈ 30.9 µM); in the test with Trichophyton rubrum, 8 µg/mL (≈ 30.9 µM). Also, the change in vivo at 100 mg/kg in test [2] is -17%. For the same compound, the ED60 in [3] was determined as 32 mg/kg. In addition, the ED50 (in general, the dose at which the effect has come halfway, by size or by number of responders) in test [4] came to 0.75 mg/kg.
Consider `C1=CCC(c2nc3ccccc3n3ccnc23)CC1` (stereo not shown) [Compound 130], for which the MIC (in test [1]; in the test with Candida albicans; in the test on Candida tropicalis; in the test on Trichophyton ajelloi) was 100 µg/mL (≈ 401 µM) in each case.
Regarding `Cc1nc2ccccc2n2ccnc12` [Compound 110], the MIC was determined as 128 µg/mL (≈ 699 µM) in [1], 128 µg/mL (≈ 699 µM) in the test with Aspergillus niger and 64 µg/mL (≈ 349 µM) in the test on Trichophyton rubrum. The change in vivo at 100 mg/kg was -74% in test [5] (100 mg/kg, local administration) and -43% in test [2]. For the same compound, in [3], the ED60 amounted to 50 mg/kg.
On to `CCCCc1nc2ccccc2n2ccnc12` [Compound 113], for which the MIC (in [1]; in the test with Candida albicans; with Candida tropicalis) was 100 µg/mL (≈ 444 µM) each time.
In the case of `c1ccc(Cc2nc3ccccc3n3ccnc23)cc1` [Compound 124], the MIC worked out at 100 µg/mL (≈ 386 µM) in test [1]; 100 µg/mL (≈ 386 µM) in the test on Candida albicans; 100 µg/mL (≈ 386 µM) with Candida tropicalis; 100 µg/mL (≈ 386 µM) in the test with Trichophyton ajelloi; 8 µg/mL (≈ 30.9 µM) in the test on Trichophyton rubrum.
Regarding `O=C(Nc1ccccc1-n1ccnc1)c1ccc(-c2ccccc2)cc1` [Compound 40], the MIC (in [1]; in the test with Candida albicans; in the test on Candida tropicalis; in the test on Trichophyton ajelloi) was 100 µg/mL (≈ 295 µM) each time. Moreover, the change in vivo at 100 mg/kg in [2] was -43%.
With `c1ccc(-c2nc3ccccc3n3ccnc23)cc1` [Compound 131, 4-phenylimidazo[1,2-a]quinoxaline, reference compound], the MIC in [1] was found to be 16 µg/mL (≈ 65.2 µM); in the test on Trichophyton rubrum, 2 µg/mL (≈ 8.15 µM). In addition, the change in vivo at 100 mg/kg in test [2] was -52%. Also, the ED60 in test [3] is 81 mg/kg. In addition, the immunosuppressant activity entry in the test with immune response is on record as “only minor activity”. In addition, in test [4], the ED50 worked out at 18 mg/kg.
Turning to `c1ccc2c(c1)ncc1nccn12` [Compound 109, imidazo[1,2-a]quinoxaline, reference compound], the results for the MIC (in [1]; in the test with Trichophyton rubrum) were 128 µg/mL (≈ 757 µM) and 32 µg/mL (≈ 189 µM), respectively. Further, the change in vivo at 0.001 mg in [5] (1 μg, injected directly into paw) was -30.8%. The change in vivo at 0.01 mg in [5] (10 μg, injected directly into paw) was -3.9%. Moreover, the change in vivo at 0.1 mg in [5] (100 μg, injected directly into paw) is 31.6%. Further, in test [2], the change in vivo at 100 mg/kg was -17%. Further, the ED60 in test [3] was greater than 50 mg/kg. The immunosuppressant activity result in the test on immune response is on record as “lacks immunosuppressant activity”. For the same compound, the ED50 in [4] was greater than 50 mg/kg.
